Columns and labels:
Aurora = Aurora inhibitory activity using Western blotting method (phosphorylation of histone H3 Ser10); format: cell-based, human; details: 10 μmol/L, 30 minutes, HCT116 cells accumulated in M phase with Nocodazole
Description: It is known that Aurora phosphorylates Ser10 of histone H3 in the G2/M phase during the cell cycle [Molecular and Cellular Biology, Vol. 22, p. 874 (2002)]. Consequently, the inhibition of phosphorylation of histone H3 Ser10 in cells was detected by a Western blotting method using human colon cancer cell line HCT116 cells accumulated in the M phase. McCoy's 5A culture medium (GIBCO, Catalogue No. 16600-082) containing 10% bovine fetus serum (GIBCO, Catalogue No. 10099-141) was used for the cultivation of the cells. The HCT116 cells were inoculated and then treated with Nocodazole (Sigma Corporation, Catalogue No. M-1404) so that the cell cycle was accumulated to the M phase. A test compound (final concentration: 10 μmol/L) was added thereto, and the cells were incubated at 37° C. for 30 minutes. The cells were then recovered and washed with a phosphate buffered saline (PBS) once. The cells were suspended in a cell-solubilizing solution (50 mmol/L 2-[4-(2-hydroxyethyl)-1-piperazinyl]ethanesulfonic acid (HEPES) (pH 7.4), 150 mmol/L NaCl, 1 mmol/L ethylenediamine-N,N,N′,N′-tetraacetic acid disodium salt dihydrate (EDTA), 2.5 mmol/L ethylene glycol bis(2-aminoethylether)-N,N,N′,N′-tetraacetic acid (EGTA), 0.1% Tween-20 (Bio-Rad Laboratories Inc., Catalogue No. 170-6531), 10% β-glycerophosphate, 1 mmol/L NaF, 0.1 mmol/L Na3VO4, 1 mmol/L Pefabloc SC (Roche Diagnostics K.K., Catalogue No. 1 429 868), and Complete EDTA-free (Roche Diagnostics K.K., Catalogue No. 1 873 580)}, and the suspension was frozen and thawed. Subsequently, the supernatant obtained by centrifugal separation was used as a cell extraction solution. SDS-PAGE was performed using a 12.5% polyacrylamide gel under the condition that the amount of protein per sample was 30 μg in accordance with the method used by Laemmli et al. The protein was transferred onto a PVDF membrane (Millipore Corporation, Catalogue No. IPVH304F0) by a semi-dry method. The membrane was allowed to react with anti-phosphorylated histone H3 Ser10 antibody (Upstate Inc., Catalogue No. 06-570) used as a primary antibody, and an HRP-labeled anti-rabbit IgG antibody (Amersham biosciences, Catalogue No. NA934V) used as a secondary antibody. Subsequently, […] was detected using a SuperSignal West Pico chemiluminescence substrate (Pierce, Catalogue No. 34077).

HCT116 cells = experiment: Evaluation of Aurora inhibitory activity by analysis of nuclear morphology (enlarged lobed nuclei); format: cell-based, human; details: concentration in the range of 0.1 to 1 μmol/L, 17 hours contact; optimal concentration different in each compound
Procedure: 281 (2003)]. Consequently, enlarged lobed nuclei-inducibility of test compounds for HCT116 cells was evaluated. McCoy's 5A culture medium (GIBCO, Catalogue No. 16600-082) containing 10% bovine fetus serum (GIBCO, Catalogue No. 10099-141) was used for the cultivation of the cells. HCT116 cells were inoculated and, 24 hours later, each test compound was added thereto.

In the case of Cl.O=C1NCc2c(Cl)ccc(-c3cc4cc(C(=O)N5CCNCC5)ccc4[nH]3)c21 [Compound 22], the “suppression of the phosphorylation of histone H3 Ser10 in HCT116 cells” value (from here on “suppression”) (Aurora) is reported as “almost completely suppressed” and the “ability of inducing enlarged lobed nuclei for HCT116 cells” value (from here on “ability”) (HCT116 cells) is reported as “show ability of inducing enlarged lobed nuclei”.
O=C1NCc2c(Cl)ccc(-c3cc4cc(C(=O)N5CCN(CCO)CC5)ccc4[nH]3)c21 [Compound 23, 4-Chloro-7-{1H-5-[4-(2-hydroxyethyl)piperazin-1-ylcarbonyl]indol-2-yl}isoindolinone] showed a melting point of over 295 °C.
In the case of Cl.Cl.O=C1NCc2c(Cl)ccc(-c3cc4cc(CN5CCN(CCO)CC5)ccc4[nH]3)c21 [Compound 24, 4-Chloro-7-{1H-5-[4-(2-hydroxyethyl)piperazin-1-ylmethyl]indol-2-yl}isoindolinone dihydrochloride], the “suppression” value (Aurora) is reported as “almost completely suppressed” and the “ability” value (HCT116 cells) is reported as “show ability of inducing enlarged lobed nuclei”.
For Cl.O=C1NCc2c(Cl)ccc(-c3cc4cc(CN5CCCCC5)ccc4[nH]3)c21 [Compound 29, 4-Chloro-7-[1H-5-(piperidinomethyl)indol-2-yl]isoindolinone hydrochloride], the “suppression” value (Aurora) was “almost completely suppressed” and the “ability” value (HCT116 cells) was “show ability of inducing enlarged lobed nuclei”.
For Cl.O=C1NCc2c(Cl)ccc(-c3cc4cc(CNCCO)ccc4[nH]3)c21 [Compound 32, 4-Chloro-7-{1H-5-[(2-hydroxyethyl)aminomethyl]indol-2-yl}isoindolinone hydrochloride], the “suppression” value (Aurora) was “almost completely suppressed” and the “ability” value (HCT116 cells) was “show ability of inducing enlarged lobed nuclei”.
For O=C(NCc1ccccc1)c1ccc2[nH]c(-c3ccc(Cl)c4c3C(=O)NC4)cc2c1 [Compound 57, 4-Chloro-7-[1H-5-(benzylaminocarbonyl)indol-2-yl]isoindolinone], the melting point was 246 °C.
In the case of O=C1NCc2c(Cl)ccc(-c3cc4cc(C(=O)N5CCN(c6ccccn6)CC5)ccc4[nH]3)c21 [Compound 107, 4-Chloro-7-{1H-5-[4-(pyridin-2-yl)piperazin-1-ylcarbonyl]indol-2-yl}isoindolinone], the melting point is reported as over 295 °C.
With O=C1NCc2c(Cl)ccc(-c3cc4cc(C(=O)N5CCN(CCOCCO)CC5)ccc4[nH]3)c21 [Compound 109, 4-Chloro-7-{1H-5-[4-(2-(2-hydroxyethoxy)ethyl)piperazin-1-ylcarbonyl]indol-2-yl}isoindolinone] the melting point was 255 °C.
With Cl.O=C1NCc2c(O)ccc(-c3cc4cc(CN5CCCCC5)ccc4[nH]3)c21 [Compound 139, 4-Hydroxy-7-[1H-5-(piperidinomethyl)indol-2-yl]isoindolinone hydrochloride] the “suppression” value (Aurora) was “almost completely suppressed” and the “ability” value (HCT116 cells) was “show ability of inducing enlarged lobed nuclei”.
For Cl.O=C1NCc2c(-c3ccco3)ccc(-c3cc4cc(CN5CCCCC5)ccc4[nH]3)c21 [Compound 143, 4-(Furan-2-yl)-7-[1H-5-(piperidinomethyl)indol-2-yl]isoindolinone hydrochloride], the “suppression” value (Aurora) was “almost completely suppressed” and the “ability” value (HCT116 cells) was “show ability of inducing enlarged lobed nuclei”.
For Cl.NS(=O)(=O)Oc1ccc(-c2cc3cc(CN4CCCCC4)ccc3[nH]2)c2c1CNC2=O [Compound 231, 4-Sulfamoyloxy-7-[1H-5-(piperidinomethyl)indol-2-yl]isoindolinone hydrochloride], the “suppression” value (Aurora) was “almost completely suppressed” and the “ability” value (HCT116 cells) was “show ability of inducing enlarged lobed nuclei”.
With Cl.O=C1NCc2c(C#CCO)ccc(-c3cc4cc(CN5CCCCC5)ccc4[nH]3)c21 [Compound 321, 4-(3-Hydroxy-1-propinyl)-7-[1H-5-(piperidinomethyl)indol-2-yl]isoindolinone hydrochloride] the “suppression” value (Aurora) was “almost completely suppressed” and the “ability” value (HCT116 cells) was “show ability of inducing enlarged lobed nuclei”.
In the case of COc1cc(-c2cc3cc(CN(C)C)ccc3[nH]2)c2c(c1O)CNC2=O.Cl [Compound 357, 4-Hydroxy-5-methoxy-7-[1H-5-(dimethylaminomethyl)indol-2-yl]isoindolinone hydrochloride], the “suppression” value (Aurora) is reported as “almost completely suppressed” and the “ability” value (HCT116 cells) is reported as “show ability of inducing enlarged lobed nuclei”.
For CNCc1ccc2[nH]c(-c3cc(OC)c(OS(C)(=O)=O)c4c3C(=O)NC4)cc2c1.Cl [Compound 375, 4-Methanesulfonyloxy-5-methoxy-7-[1H-5-(methylaminomethyl)indol-2-yl]isoindolinone hydrochloride], the “suppression” value (Aurora) was “almost completely suppressed” and the “ability” value (HCT116 cells) was “show ability of inducing enlarged lobed nuclei”.
For CCN(CC)Cc1ccc2[nH]c(-c3cc(OC)c(OS(C)(=O)=O)c4c3C(=O)NC4)cc2c1.Cl [Compound 376, 4-Methanesulfonyloxy-5-methoxy-7-[1H-5-(diethylaminomethyl)indol-2-yl]isoindolinone hydrochloride], the “suppression” value (Aurora) was “almost completely suppressed” and the “ability” value (HCT116 cells) was “show ability of inducing enlarged lobed nuclei”.
In the case of COc1cc(-c2cc3cc(CN4CCCCC4)ccc3[nH]2)c2c(c1OS(=O)(=O)c1ccsc1)CNC2=O.Cl [Compound 407, 4-(3-Thiophenesulfonyloxy)-5-methoxy-7-[1H-5-(piperidinomethyl)indol-2-yl]isoindolinone hydrochloride], the “suppression” value (Aurora) is reported as “almost completely suppressed” and the “ability” value (HCT116 cells) is reported as “show ability of inducing enlarged lobed nuclei”.
With COc1cc(-c2cc3cc(CN(C)C)ccc3[nH]2)c2c(c1OS(=O)(=O)c1ccccn1)CNC2=O.Cl [Compound 412, 4-(2-Pyridinesulfonyloxy)-5-methoxy-7-[1H-5-(dimethylaminomethyl)indol-2-yl]isoindolinone hydrochloride] the “suppression” value (Aurora) was “almost completely suppressed” and the “ability” value (HCT116 cells) was “show ability of inducing enlarged lobed nuclei”.
In the case of COc1cc(-c2cc3cc(CN4CCCC4)ccc3[nH]2)c2c(c1OS(=O)(=O)N(C)C)CNC2=O.Cl [Compound 417, 4-(Dimethylsulfamoyloxy)-5-methoxy-7-[1H-5-(pyrrolidin-1-ylmethyl)indol-2-yl]isoindolinone hydrochloride], the “suppression” value (Aurora) is reported as “almost completely suppressed” and the “ability” value (HCT116 cells) is reported as “show ability of inducing enlarged lobed nuclei”.
In the case of CN(C)Cc1ccc2[nH]c(-c3cc(OCCCO)c(Cl)c4c3C(=O)NC4)cc2c1.Cl [Compound 431, 4-Chloro-5-(3-hydroxypropoxy)-7-[1H-5-(dimethylaminomethyl)indol-2-yl]isoindolinone hydrochloride], the “suppression” value (Aurora) is reported as “almost completely suppressed” and the “ability” value (HCT116 cells) is reported as “show ability of inducing enlarged lobed nuclei”.
In the case of COCCCNCc1ccc2[nH]c(-c3cc(OC)c(OS(C)(=O)=O)c4c3C(=O)NC4)cc2c1.Cl [Compound 454, 4-Methanesulfonyloxy-5-methoxy-7-[1H-5-(3-methoxypropylaminomethyl)indol-2-yl]isoindolinone hydrochloride], the “suppression” value (Aurora) is reported as “almost completely suppressed” and the “ability” value (HCT116 cells) is reported as “show ability of inducing enlarged lobed nuclei”.
With COc1cc(-c2cc3cc(N4CCN(C)CC4)ccc3[nH]2)c2c(c1OS(C)(=O)=O)CNC2=O.Cl.Cl [Compound 457, 4-Methanesulfonyloxy-5-methoxy-7-[1H-5-(4-methylpyperazin-1-yl)indol-2-yl]isoindolinone dihydrochloride] the “suppression” value (Aurora) was “almost completely suppressed” and the “ability” value (HCT116 cells) was “show ability of inducing enlarged lobed nuclei”.

Source: US7745641B2, “Nitrogen-containing heterocyclic compound” (Kyowa Hakko Kirin Co., Ltd., priority 2005, dated 2010)
